In paper PMC6615261, “Repurposing Azithromycin and Rifampicin Against Gram-Negative Pathogens by Combination With Peptidomimetics” (Frontiers in Cellular and Infection Microbiology, 2019):

Experiments:
MDR E. coli ST131 = assay: Screening of peptidomimetic-antibiotic combinations (growth / growth inhibition); format: cell-based, Escherichia coli; parameters: key to Growth in combination with RIF / Growth in combination with AZM: Growth (+); growth inhibition (–); details: for Growth in combination with AZM: peptidomimetic 0.5 μM + azithromycin 1 μg/mL; for Growth in combination with RIF: peptidomimetic 0.5 μM + rifampicin 0.5 μg/mL; for Potentiation in the screening, rifampicin or azithromycin: 0.5 μM peptidomimetic
Experimental: (§1) Minimal inhibitory concentrations (MICs) of peptidomimetics, antibiotics and their combinations were determined by broth microdilution according to the Clinical Laboratory Standards Institute performance standards (Clinical and Laboratory Standards Institute, [2013]). […] Since rifampicin and azithromycin mainly are used to treat infections with Gram-positive pathogens only CLSI clinical breakpoints were available for such bacteria. […] Potentiation of additional antibiotics by peptidomimetics was determined by using commercial 96-well plates containing varied concentrations of standard antibiotics (COMPAN1F; Trek Diagnostic Systems Inc.). The peptidomimetics were added immediately prior to inoculation with pathogen, and then MICs were determined as above. The MICs of peptidomimetic/antibiotic combinations were determined according to the method above, and the concentration ratios were selected based upon checkerboard results with 2:1 and 1:4 ratio of peptidomimetic with rifampicin or azithromycin, respectively. Minimal bactericidal concentrations (MBCs) were determined by using growth-curve assay plates. MIC plates were prepared as above, and then the plates were incubated at 37°C with continuous shaking. Growth was recorded at 10 min intervals as optical density (OD) at 600 nm during 24 h. At 24 h, for wells without growth, a sample was diluted 10-fold in sterile saline (0.9% sodium chloride) and plated onto MHA, following CLSI guidelines (Clinical and Laboratory Standards Institute, [1999]).

K. pneumoniae ST258 = assay: as above; format: cell-based, Klebsiella pneumoniae; parameters: key to Growth in combination with RIF / Growth in combination with AZM: Growth (+); growth inhibition (–); details: for Growth in combination with AZM: peptidomimetic 0.5 μM + azithromycin 1 μg/mL; for Growth in combination with RIF: peptidomimetic 0.5 μM + rifampicin 0.5 μg/mL; for Potentiation in the screening, rifampicin or azithromycin: 0.5 μM peptidomimetic
Experimental: as §1

Row | Substance | Growth in combination with AZM (MDR E. coli ST131) | Growth in combination with RIF (MDR E. coli ST131) | Growth in combination with AZM (K. pneumoniae ST258) | Growth in combination with RIF (K. pneumoniae ST258) | Screening result with rifampicin (MDR E. coli ST131; 0.5 μM peptidomimetic + 0.5 μg/mL rifampicin) | Potentiation in the screening, rifampicin or azithromycin (MDR E. coli ST131) | Potentiation in the screening, rifampicin or azithromycin (K. pneumoniae ST258)
1 | (NLys)LG(NLys)IW(NLys)I(Nlys)2LF-NH2 [Peptidomimetic 32] | + | + | + | + |  |  | 
2 | (NLys)W(NLys)LF(NLys)2VL(NLys)VLTTG-NH2 [Peptidomimetic 33] | + | + | + | + |  |  | 
3 | Ac-(Lys-NTrp)8-NH2 [Peptidomimetic 19] | – | + | + | + |  |  | 
4 | Ac-(Lys-βNspe)6-NH2 [Peptidomimetic 6] | – | – | + | + |  |  | 
5 | Ac-(Lys-βNspe)8-NH2 [Peptidomimetic 5] | – | – | + | + |  |  | 
6 | Ac-(Lys-βNspe-hArg-βNspe)2-NH2 [Peptidomimetic 10] | + | – | + | + | potentiated rifampicin activity |  | 
7 | Ac-(NLys-NPhe)8-NH2 [Peptidomimetic 22] | – | – | + | + |  |  | 
8 | Ac-(NLys-Trp)8-NH2 [Peptidomimetic 20] | + | – | + | + |  |  | 
9 | Ac-(azaLys-βNspe-Lys-βNspe)4-NH2 [Peptidomimetic 17] | + | + | + | + |  |  | 
10 | Ac-(bNLys-Trp)8-NH2 [Peptidomimetic 21] | + | – | + | + |  |  | 
11 | Ac-(bNLys-bNPhe)8-NH2 [Peptidomimetic 18] | + | + | + | + |  |  | 
12 | Ac-(hArg-βNPhe)5-NH2 [Peptidomimetic 3] | + | – | + | + |  |  | 
13 | Ac-(hArg-βNPhe)8-NH2 [Peptidomimetic 2] | + | + | + | + |  |  | 
14 | Ac-(hArg-βNchx)6-NH2 [Peptidomimetic 7] | + | + | + | + |  |  | 
15 | Ac-(hArg-βNchx-Lys-βNspe)3-NH2 [Peptidomimetic 8] | + | + | + | + |  |  | 
16 | Ac-(hArg-βNspe)6-(Trp)2-NH2 [Peptidomimetic 16] | + | + | + | + |  |  | 
17 | Ac-(hArg-βNspe)7-NH2 [Peptidomimetic 4] | + | + | + | + |  |  | 
18 | Ac-[(S)-Aoc]-(Lys-βNPhe)6-NH2 [Peptidomimetic 41] | – | – | + | + |  |  | 

Row | Substance | Growth in combination with AZM (MDR E. coli ST131) | Growth in combination with RIF (MDR E. coli ST131) | Growth in combination with AZM (K. pneumoniae ST258) | Growth in combination with RIF (K. pneumoniae ST258) | Screening result with rifampicin (MDR E. coli ST131; 0.5 μM peptidomimetic + 0.5 μg/mL rifampicin) | Potentiation in the screening, rifampicin or azithromycin (MDR E. coli ST131) | Potentiation in the screening, rifampicin or azithromycin (K. pneumoniae ST258)
19 | Cin-(Lys-Phe)8-NH2 [Peptidomimetic 24] | + | + | + | + |  |  | 
20 | Cin-(Lys-βNspe-hArg-βNspe)3-NH2 [Peptidomimetic 27] | + | + | + | + |  | did not exhibit any potentiation activity | did not exhibit any potentiation activity
21 | F5Ph-acetic acid-(5F-Phe)-(Lys-βNspe-hArg-βNspe)3-NH2 [Peptidomimetic 29] | + | + | + | + |  | did not exhibit any potentiation activity | did not exhibit any potentiation activity
22 | G(NLys)W(NLys)2II(NLys)VA(NLys)-NH2 [Peptidomimetic 31] | + | + | + | + |  |  | 
23 | Lau-(Lys-βNPhe)6-NH2 [Peptidomimetic 37] | + | – | + | + |  |  | 
24 | Lau-Dap(Lau)-(Lys-βNspe-hArg-βNspe)3-NH2 [Peptidomimetic 40] | + | + | + | + |  |  | 
25 | Oct-(Lys-βNspe)6-NH2 [Peptidomimetic 35] | + | + | + | + |  |  | 
26 | Oct-[(S)-Aoc]-(Lys-βNphe)6-NH2 [Peptidomimetic 42] | + | + | + | + |  |  | 
27 | Pam-(Lys-βNPhe)6-NH2 [Peptidomimetic 36] | + | + | + | + |  |  | 
28 | Pam-(Lys-βNspe)6-NH2 [Peptidomimetic 34] | + | + | + | + |  |  | 
29 | Pam-(Lys-βNspe-hArg-βNspe)2-NH2 [Peptidomimetic 13] | + | + | + | + |  | did not exhibit any potentiation activity | did not exhibit any potentiation activity
30 | Pam-(Lys-βNspe-hArg-βNspe)3-NH2 [Peptidomimetic 12] | + | + | + | + |  | did not exhibit any potentiation activity | did not exhibit any potentiation activity
31 | Pam-(Lys-βNspe-hArg-βNspe)-NH2 [Peptidomimetic 9] | + | + | + | + |  | did not exhibit any potentiation activity | did not exhibit any potentiation activity
32 | Pam-[(S)-Aoc]-(Lys-βNphe)6-NH2 [Peptidomimetic 11] | + | + | + | + |  |  | 
33 | R(Tbt)R(NPhe) [Peptidomimetic 39] | + | + | + | + |  |  | 
34 | R(Tbt)R(hPhe)-NH2 [Peptidomimetic 38] | + | + | + | + |  |  | 
35 | VNW(NLys)2VL(NLys)2II(NLys)VA(NLys)-NH2 [Peptidomimetic 30] | + | + | + | + |  |  | 
36 | p-CF3-benzoyl-(Lys-Phe)8-NH2 [Peptidomimetic 23] | + | + | + | + |  |  | 
